Tests used:
[1] = test system: EPO mRNA; assay: mRNA encapsulation rate of mRNA lipid nanoparticles; type: physicochemical; conditions: mixed solution PBS
Description: (§1) The compounds described in Table 1, the neutral lipid, cholesterol (product name: Cholesterol HP; NIPPON FINE CHEMICAL CO., LTD.), and 1,2-dimyristoyl-rac-glycero-3-(methylpolyoxyethylene 2000) (hereinafter, called DMG-PEG2000) (product name: SUNBRIGHT® GM-020; NOF corporation) were dissolved in ethanol at a molar ratio of ionized lipid:neutral lipid:cholesterol:DMG-PEG2000=50:10:38.5:1.5 mol % such that the total lipid concentration was 12.5 mmol/L, to obtain an oil phase.
(§2) As the neutral lipid, 1,2-distearoyl-sn-glycero-3-phosphocholine (product name: COATSOME® MC-8080; NOF corporation) (hereinafter, DSPC), or L-α-dioleoylphosphatidylethanolamine (hereinafter, DOPE) (product name: COATSOME® MC-8181; NOF corporation) was used.
(§3) EPO mRNA (product name: CleanCap EPO mRNA (5 moU); TriLink) was diluted with 50 mmol/L citrate buffer having a pH 4.0 such that the weight ratio of total lipid concentration to mRNA concentration is about 20:1 to 64:1, thereby obtaining a water phase. Then, the water phase and the oil phase were mixed together using NanoAssemblr (Precision NanoSystems) such that the volume ratio of water phase:oil phase was 3:1. The mixed solution was diluted 2-fold with any of phosphate buffered physiological saline (PBS), water, or a 20 mmol/L Tris buffer solution (pH 7.4) to obtain a dispersion liquid of mRNA lipid nanoparticles. The dispersion liquid was dialyzed with 20 mmol/L Tris buffer solution (pH 7.4) containing 8% sucrose using a dialysis cassette (Slide-A-Lyzer G2, MWCO: 10 kD, Thermo Fisher Scientific) to remove ethanol, thereby obtaining EPO mRNA-encapsulating lipid nanoparticles.
EPO mRNA was diluted with MilliQ water to prepare a diluted sample in 2-fold dilution series from 100 µg/mL to […], and a calibration curve solution was prepared. 50 μL of the calibration curve solution or the mRNA lipid nanoparticles was mixed with 450 μL of methanol to prepare a measurement solution.
The absorbance of each measurement solution at 260 nm and 330 nm was measured using a UV plate reader (Multiskan Go, Thermo Fisher Scientific), the absorbance at 330 nm was subtracted from the absorbance at 260 nm, and the result was defined as the absorbance of each measurement solution. The total […] nucleic acid concentration was calculated from the calibration curve using the absorbance of each sample measurement solution.
The concentration of the outer water phase nucleic acid was quantified by a standard addition method using a QuanT-iT RiboGreen RNA Assay Kit (Thermo Fisher Scientific). First, a 20× TE buffer included in the above kit was diluted with water, thereby obtaining a 1×TE buffer. TE represents Tris/EDTA (ethylenediaminetetraacetic acid). EPO mRNA was diluted with a TE buffer such that the final concentration was 0 to 400 ng/mL to prepare a nucleic acid diluted series. 10 μL of mRNA lipid nanoparticles diluted 5-fold with TE buffer and 90 µL of a nucleic acid dilution series were mixed in a 96-well plate, 100 μL of a Ribogreen reagent diluted 200-fold with TE buffer was added to each well, and then fluorescence (excitation wavelength: 485 nm, fluorescence wavelength: 535 nm) was measured using a fluorescence plate reader (Infinite 200 Pro M nano+, TECAN). From the obtained results, the outer water phase nucleic acid concentration of each measurement solution was calculated according to the standard addition method.
By using the quantification results of the total mRNA concentration and the mRNA concentration in the outer water phase that were obtained through the above steps, the mRNA encapsulation rate of the mRNA lipid nanoparticles was calculated according to the following Equation. […]

[2] = Particle size of EPO mRNA-encapsulating lipid nanoparticles; type: physicochemical; conditions: mixed solution PBS
Description: as §1, §2, §3
The particle size of the mRNA-encapsulating lipid nanoparticles was measured by 5-fold diluting the dispersion liquid of lipid nanoparticle with phosphate buffered physiological saline (PBS) using a particle size measurement device NanoSaqla (Otsuka Electronics Co., Ltd.).

[3] = test system: ICR mice; assay: EPO protein expression in mice after intravenous EPO mRNA lipid nanoparticles; type: in vivo; conditions: mRNA 0.1 mg/kg, plasma 6 hours after administration
Description: as §1, §2, §3
The dispersion liquid of mRNA lipid nanoparticles prepared in above <Preparation of EPO mRNA-encapsulating lipid nanoparticles> was intravenously administered to ICR mice at a mRNA dosage of 0.1 mg/kg. 6 hours after the administration, blood was collected from the caudal vena cava, thereby obtaining plasma. The human EPO […] was quantified by using the obtained blood plasma and Erythropoietin (EPO) Human Elisa Kit (Abcam.plc). The quantitative value is described as a relative amount of EPO protein in a case where Comparative Example 1 is 1.

[4] = LNP with neutral lipid DSPC, Lipid/Nucleic acid (wt/wt) 20
[5] = neutral lipid DSPC, Lipid/Nucleic acid (wt/wt) 20, Comparative Example 1 is 1
[6] = LNP with neutral lipid DOPE, Lipid/Nucleic acid (wt/wt) 64
[7] = neutral lipid DOPE, Lipid/Nucleic acid (wt/wt) 64, Comparative Example 1 is 1

| SMILES | Nucleic acid encapsulation rate (%) [1, 4] [%] | Particle size (nm) [2, 4] [nm] | Nucleic acid encapsulation rate (%) [1, 6] [%] | Particle size (nm) [2, 6] [nm] | Relative amount of EPO protein (to Comparative Example 1) [3, 5] | Relative amount of EPO protein (to Comparative Example 1) [3, 7] |
| --- | --- | --- | --- | --- | --- | --- |
| CCCCCCCCCCCC(=O)OCCN(CCOC(=O)CCCCCCCCCCC)C(=O)OCCN(CCOC(=O)N(CCOC(=O)CCCCCCCCCCC)CCOC(=O)CCCCCCCCCCC)CCN(CC)CC [Example 20, 2-(2-(2-(bis(2-dodecanoyloxyethyl)carbamoyloxy)ethyl-(2-(diethylamino)ethyl)amino)ethoxycarbonyl-(2-dodecanoyloxyethyl)amino)ethyl dodecanoate] | 82 | 151 |  |  | 1.63 |  |
| CCCCCCCCN(CCCCCCCCCC(=O)OCC(CCCCCC)CCCCCC)C(=O)OCCN(CCOC(=O)CCCCCCC)CCN(CC)CC [Comparative Example 1, 2-hexyloctyl 3-ethyl-6-(2-(octanoyloxy)ethyl)-11-octyl-10-oxo-9-oxa-3,6,11-triazahenicosan-21-oate, reference compound] | 62 | 206 |  |  | 1.00 |  |
| CCCCCC(CCCCC)COC(=O)CCCCCN(CCCCC)C(=O)OCCN(CCOC(=O)N(CCCCC)CCCCCC(=O)OCC(CCCCC)CCCCC)CCN(CC)CC [Example 46, Bis(2-pentylheptyl) 12-(2-(diethylamino)ethyl)-8,16-dioxo-7,17-dipentyl-9,15-dioxa-7,12,17-triazatricosanedioate] | 93 | 104 |  |  | 1.54 |  |
| CCCCCCC(CCCCCC)COC(=O)CCCCCN(CCCC)C(=O)OCCN(CCOC(=O)N(CCCC)CCCCCC(=O)OCC(CCCCCC)CCCCCC)CCN(CC)CC [Example 47, Bis(2-hexyloctyl) 7,17-dibutyl-12-(2-(diethylamino)ethyl)-8,16-dioxo-9,15-dioxa-7,12,17-triazatricosanedioate] | 91 | 114 |  |  | 1.46 |  |
| CCCCCCCCCCCOC(=O)CN(CC(=O)OCCCCCCCCCCC)C(=O)OCCN(CCOC(=O)N(CC(=O)OCCCCCCCCCCC)CC(=O)OCCCCCCCCCCC)CCN(CC)CC [Example 33, Diundecyl 8-(2-(diethylamino)ethyl)-4,12-dioxo-3,13-bis(2-oxo-2-(undecyloxy)ethyl)-5,11-dioxa-3,8,13-triazapentadecanedioate] | 78 | 155 |  |  | 2.90 |  |
| CCCCCCCCN(CCCCCCCC)C(=O)OCCN(CCOC(=O)N(CCCCCCCC)CCCCCCCC)CCN(CC)CC [Example 1, ((2-(diethylamino)ethyl)azanediyl)bis(ethan-2,1-diyl)bis(dioctylcarbamate)] |  |  | >99 | 88.6 |  | 21.60 |
| CCCCCCC(CCCC)COC(=O)CCCCN(CCCCCC)C(=O)OCCN(CCOC(=O)N(CCCCCC)CCCCC(=O)OCC(CCCC)CCCCCC)CCN(CC)CC (stereo not drawn) [Example 17, Bis(2-butyloctyl) 11-(2-(diethylamino)ethyl)-6,16-dihexyl-7,15-dioxo-8,14-dioxa-6,11,16-triazahenicosanedioate] | 80 | 165 |  |  | 5.76 |  |

Second part, led by results:

| Nucleic acid encapsulation rate (%) [1, 4] [%] | Particle size (nm) [2, 4] [nm] | Nucleic acid encapsulation rate (%) [1, 6] [%] | Particle size (nm) [2, 6] [nm] | SMILES | Relative amount of EPO protein (to Comparative Example 1) [3, 5] | Relative amount of EPO protein (to Comparative Example 1) [3, 7] |
| --- | --- | --- | --- | --- | --- | --- |
| 95 | 84 |  |  | CCCCCCCN(CCCCCC(=O)OCC(CCCCC)CCCCC)C(=O)OCCN(CCOC(=O)N(CCCCCCC)CCCCCC(=O)OCC(CCCCC)CCCCC)CCN(CC)CC [Example 45, Bis(2-pentylheptyl) 12-(2-(diethylamino)ethyl)-7,17-diheptyl-8,16-dioxo-9,15-dioxa-7,12,17-triazatricosanedioate] | 2.19 |  |
| 94 | 78 | 99 | 94.5 | CCCCCCCCN(CCCCC(=O)OCC(CCCCC)CCCCC)C(=O)OCCN(CCOC(=O)N(CCCCCCCC)CCCCC(=O)OCC(CCCCC)CCCCC)CCN(CC)CC [Example 3, Bis(2-pentylheptyl) 11-(2-(diethylamino)ethyl)-6,16-dioctyl-7,15-dioxo-8,14-dioxa-6,11,16-triazahenicosanedioate] | 6.15 | 13.55 |
| 94 | 82 | 99 | 95.6 | CCCCCCCCN(CCCCC(=O)OCC(CCCCCC)CCCCCC)C(=O)OCCN(CCOC(=O)N(CCCCCCCC)CCCCC(=O)OCC(CCCCCC)CCCCCC)CCN(CC)CC [Example 2, bis(2-hexyloctyl) 11-(2-(diethylamino)ethyl)-6,16-dioctyl-7,15-dioxo-8,14-dioxa-6,11,16-triazahenicosanedioate] | 6.70 | 24.57 |
| 93 | 145 |  |  | CCCCCCCCN(CCCCC(=O)OCC(CCCCC)CCCCC)C(=O)OCCN(CCCCN(CC)CC)CCOC(=O)N(CCCCCCCC)CCCCC(=O)OCC(CCCCC)CCCCC [Example 36, Bis(2-pentylheptyl) 11-(4-(diethylamino)butyl)-6,16-dioctyl-7,15-dioxo-8,14-dioxa-6,11,16-triazahenicosanedioate] | 6.40 |  |
| 96 | 90 |  |  | CCCCCCCN(CCCCCC(=O)OCC(CCCCC)CCCCC)C(=O)OCCN(CCCN(CC)CC)CCOC(=O)N(CCCCCCC)CCCCCC(=O)OCC(CCCCC)CCCCC [Example 48, Bis(2-pentylheptyl) 12-(3-(diethylamino)propyl)-7,17-diheptyl-8,16-dioxo-9,15-dioxa-7,12,17-triazatricosanedioate] | 2.26 |  |
| 94 | 93 |  |  | CCCCCCCCN(CCCCCC(=O)OCC(CCCCC)CCCCC)C(=O)OCCN(CCCN(CC)CC)CCOC(=O)N(CCCCCCCC)CCCCCC(=O)OCC(CCCCC)CCCCC [Example 51, Bis(2-pentylheptyl) 12-(3-(diethylamino)propyl)-7,17-dioctyl-8,16-dioxo-9,15-dioxa-7,12,17-triazatricosanedioate] | 2.88 |  |

Reference: patent US20250345459A1, “COMPOUND OR SALT THEREOF, LIPID COMPOSITION, PHARMACEUTICAL COMPOSITION, AND DELIVERY CARRIER” (FUJIFILM Corporation, priority 2023, published 2025)
